Like-named read-outs stand apart in the source and are kept apart here.
What was measured:
Shp1 [1] = molecular target: T1, Shp1 (Homo sapiens (Human), UniProt P29350)
Shp2 = Shp2 (Homo sapiens (Human), UniProt Q06124); assay: PTP activity assay (DiFMUP substrate) with GST-Shp2; type: biochemical; conditions: for IC50: Table II, Shp2
Excerpt: (§1) All constructs were verified by DNA sequencing.
(§2) Recombinant DEP1 was from Abcam.

Shp1 [2] = molecular target: T1, Shp1; assay: biochemical
CD45 = CD45 (Homo sapiens (Human), UniProt P08575); assay: PTP activity assay (DiFMUP substrate) with recombinant CD45; type: biochemical; conditions: CD45, in vitro
Chain of CD45 (P08575 609-1306): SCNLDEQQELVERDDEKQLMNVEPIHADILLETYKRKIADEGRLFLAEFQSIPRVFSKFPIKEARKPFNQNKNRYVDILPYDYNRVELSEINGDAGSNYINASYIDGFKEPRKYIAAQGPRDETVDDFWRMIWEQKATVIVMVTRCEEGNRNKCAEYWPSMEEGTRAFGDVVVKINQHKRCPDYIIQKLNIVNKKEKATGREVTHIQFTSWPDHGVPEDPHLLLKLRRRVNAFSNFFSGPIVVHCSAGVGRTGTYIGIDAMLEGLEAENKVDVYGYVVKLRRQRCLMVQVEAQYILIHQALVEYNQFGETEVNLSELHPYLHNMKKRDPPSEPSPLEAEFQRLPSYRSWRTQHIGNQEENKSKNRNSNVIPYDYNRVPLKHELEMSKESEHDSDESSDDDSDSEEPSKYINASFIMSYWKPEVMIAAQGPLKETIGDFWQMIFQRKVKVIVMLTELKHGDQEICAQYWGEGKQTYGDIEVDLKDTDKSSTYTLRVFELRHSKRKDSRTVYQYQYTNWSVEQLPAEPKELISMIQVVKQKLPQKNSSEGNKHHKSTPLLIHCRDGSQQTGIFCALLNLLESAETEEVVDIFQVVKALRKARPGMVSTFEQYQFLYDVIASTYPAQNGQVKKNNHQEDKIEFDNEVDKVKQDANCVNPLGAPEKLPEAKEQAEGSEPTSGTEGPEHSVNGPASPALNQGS

[3] = test system: Gab1 tyrosine phosphorylation and Gab1-Shp2 association; assay: EGF-induced Gab1 tyrosine phosphorylation and Gab1-Shp2 association in HEK293 cells; type: cell-based; conditions: 20 μM, 3 h, EGF 5 ng/ml 5 min
Description: . Gab1 was immunoprecipitated from cell lysate supernatants. Immunoprecipitates were analyzed by immunoblotting with antibodies to phosphotyrosine (pY), Gab1, or Shp2. An aliquot of each cell lysate supernatant (30 μg) was also examined by immunoblotting with an antibody to Shp2 (bottom panel). pY-Gab1, tyrosine-phosphorylated Gab1.
Shp2 is activated in EGF-stimulated cells by binding to tyrosine-phosphorylated Gab1 (and Gab2 if it is also expressed) (Cunnick et al., 2001). […] . […] . […] .

LAR = LAR (Homo sapiens (Human), UniProt P10586); assay: PTP activity assay (DiFMUP substrate) with LAR D1 domain; type: biochemical; conditions: in vitro
Chain of LAR (P10586 1352-1607): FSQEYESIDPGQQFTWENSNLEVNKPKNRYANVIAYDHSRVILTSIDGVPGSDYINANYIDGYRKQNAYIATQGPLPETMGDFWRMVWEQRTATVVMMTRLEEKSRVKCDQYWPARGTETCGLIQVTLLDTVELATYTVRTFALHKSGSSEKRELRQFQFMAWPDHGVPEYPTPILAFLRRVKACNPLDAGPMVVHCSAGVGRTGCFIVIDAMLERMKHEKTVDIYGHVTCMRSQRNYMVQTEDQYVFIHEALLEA

DEP1 = DEP1 (Homo sapiens (Human), UniProt Q12913); assay: PTP activity assay (DiFMUP substrate) with recombinant DEP1; type: biochemical; conditions: DEP1, in vitro
Chain of DEP1 (Q12913 36-1337): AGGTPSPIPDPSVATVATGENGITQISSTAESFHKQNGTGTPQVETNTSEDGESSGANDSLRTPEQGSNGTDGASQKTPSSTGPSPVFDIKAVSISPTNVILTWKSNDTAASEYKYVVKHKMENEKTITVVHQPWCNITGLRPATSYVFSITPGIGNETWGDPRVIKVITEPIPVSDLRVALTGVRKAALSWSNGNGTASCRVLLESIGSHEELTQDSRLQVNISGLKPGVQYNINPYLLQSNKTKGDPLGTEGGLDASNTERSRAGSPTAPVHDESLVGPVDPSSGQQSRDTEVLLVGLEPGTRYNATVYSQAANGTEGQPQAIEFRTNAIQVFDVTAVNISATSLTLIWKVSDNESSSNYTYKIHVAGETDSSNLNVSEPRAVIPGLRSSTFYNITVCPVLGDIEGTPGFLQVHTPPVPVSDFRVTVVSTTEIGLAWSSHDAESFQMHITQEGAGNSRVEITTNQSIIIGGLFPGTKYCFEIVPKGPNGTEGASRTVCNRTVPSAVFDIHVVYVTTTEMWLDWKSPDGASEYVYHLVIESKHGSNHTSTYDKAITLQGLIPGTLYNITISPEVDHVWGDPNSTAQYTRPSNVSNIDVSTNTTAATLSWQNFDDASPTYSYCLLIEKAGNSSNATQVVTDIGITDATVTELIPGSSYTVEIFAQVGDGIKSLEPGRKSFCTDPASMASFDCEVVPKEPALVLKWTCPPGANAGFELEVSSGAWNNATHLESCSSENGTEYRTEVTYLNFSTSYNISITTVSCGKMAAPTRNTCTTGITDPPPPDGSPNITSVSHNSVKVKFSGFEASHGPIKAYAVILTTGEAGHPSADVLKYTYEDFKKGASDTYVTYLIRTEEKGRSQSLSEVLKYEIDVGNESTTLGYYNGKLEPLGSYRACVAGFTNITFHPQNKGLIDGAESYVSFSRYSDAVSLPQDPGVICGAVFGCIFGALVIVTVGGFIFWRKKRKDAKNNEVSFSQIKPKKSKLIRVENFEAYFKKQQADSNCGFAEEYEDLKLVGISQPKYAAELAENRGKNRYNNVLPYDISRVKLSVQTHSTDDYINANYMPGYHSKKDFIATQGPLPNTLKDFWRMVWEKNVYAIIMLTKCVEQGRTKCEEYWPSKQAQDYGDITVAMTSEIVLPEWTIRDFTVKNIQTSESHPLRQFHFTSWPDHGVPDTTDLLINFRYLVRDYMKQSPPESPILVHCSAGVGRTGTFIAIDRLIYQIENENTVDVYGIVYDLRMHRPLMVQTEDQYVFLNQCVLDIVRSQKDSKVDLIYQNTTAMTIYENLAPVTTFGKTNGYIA

PTP1B = PTP1B (Homo sapiens (Human), UniProt P18031); assay: PTP activity assay (DiFMUP substrate) with GST-PTP1B; type: biochemical; conditions: in vitro
Chain of PTP1B (P18031 whole entry): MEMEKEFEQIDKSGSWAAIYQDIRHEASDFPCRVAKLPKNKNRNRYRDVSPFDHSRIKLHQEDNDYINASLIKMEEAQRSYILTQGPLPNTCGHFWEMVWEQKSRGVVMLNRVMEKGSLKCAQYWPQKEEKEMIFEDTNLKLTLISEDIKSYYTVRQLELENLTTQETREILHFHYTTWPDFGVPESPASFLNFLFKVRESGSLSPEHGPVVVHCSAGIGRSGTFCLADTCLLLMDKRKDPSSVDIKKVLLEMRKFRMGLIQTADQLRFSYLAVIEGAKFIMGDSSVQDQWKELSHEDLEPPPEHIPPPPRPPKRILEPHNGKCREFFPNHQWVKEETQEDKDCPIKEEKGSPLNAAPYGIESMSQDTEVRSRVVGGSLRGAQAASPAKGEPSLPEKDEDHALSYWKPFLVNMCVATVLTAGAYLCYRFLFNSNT
Excerpt: as §1, §2

Chain of Shp2 (Q06124 205-593): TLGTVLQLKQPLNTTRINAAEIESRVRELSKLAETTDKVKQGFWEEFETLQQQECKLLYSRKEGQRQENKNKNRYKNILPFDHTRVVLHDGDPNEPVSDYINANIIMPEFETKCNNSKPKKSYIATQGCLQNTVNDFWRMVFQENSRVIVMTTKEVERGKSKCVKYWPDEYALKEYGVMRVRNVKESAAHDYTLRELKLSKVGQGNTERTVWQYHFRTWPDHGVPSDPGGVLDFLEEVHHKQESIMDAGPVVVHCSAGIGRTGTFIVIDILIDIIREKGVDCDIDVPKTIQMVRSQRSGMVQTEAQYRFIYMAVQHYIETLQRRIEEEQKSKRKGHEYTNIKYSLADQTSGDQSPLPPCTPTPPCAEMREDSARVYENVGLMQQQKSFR
T1 sequence (P29350 203-595): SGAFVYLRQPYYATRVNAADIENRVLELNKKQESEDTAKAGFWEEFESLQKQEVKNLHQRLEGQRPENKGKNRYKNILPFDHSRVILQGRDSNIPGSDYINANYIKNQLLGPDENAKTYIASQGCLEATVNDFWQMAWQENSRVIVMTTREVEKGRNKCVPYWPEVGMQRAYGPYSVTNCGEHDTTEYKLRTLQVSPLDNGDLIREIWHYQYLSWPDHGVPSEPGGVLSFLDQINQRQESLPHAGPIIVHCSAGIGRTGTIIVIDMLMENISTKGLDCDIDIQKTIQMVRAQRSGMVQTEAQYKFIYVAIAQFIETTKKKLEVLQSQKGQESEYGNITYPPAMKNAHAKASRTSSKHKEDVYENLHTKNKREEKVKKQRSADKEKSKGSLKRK

O=C1Nc2ccc(S(=O)(=O)O)cc2/C1=N/Nc1ccccc1[N+](=O)[O-] [HL1-056]
IC50 (Shp1 [1]): 68.1 µM
% PTP activity (Shp2; concentration not given): 86 ± 3% (6)

O=C1Nc2ccc(C(=O)O)cc2/C1=N/Nc1ccccc1C(=O)O [HL2-052-2]
% PTP activity (Shp2; at 20 μM): 46 ± 3% (2) at 20 μM
IC50 (Shp1 [2]): 21.4 µM

O=C1Nc2ccc(C(=O)O)cc2/C1=N/Nc1cccc(C(=O)O)c1 [HL2-052-3]
IC50 (Shp1 [1]): 72.5 µM
% PTP activity (Shp2; at 20 μM): 56.94% (1) at 20 μM

O=C1Nc2ccc(C(=O)NCc3ccc(Cl)cc3)cc2/C1=N/Nc1cccc(C(=O)O)c1 [HL2-070-5]
IC50 (Shp1 [1]): 19.4 µM
% PTP activity (Shp2; at 20 μM): 62.32% (1) at 20 μM

O=S(=O)(O)c1ccc2cc(/N=N\c3cc(S(=O)(=O)O)c4cccnc4c3O)ccc2c1 [NSC-87877, 8-hydroxy-7-(6-sulfonaphthalen-2-yl)diazenyl-quinoline-5-sulfonic acid]
IC50 (CD45): 84.5 ± 16.2 µM
IC50 (Shp1 [2]): 0.355 µM
EGF-stimulated Gab1 tyrosine phosphorylation [3]: did not inhibit
binding of Shp2 to Gab1 [3]: did not inhibit
IC50 (LAR): 151 ± 9.08 µM
IC50 (DEP1): 65.6 ± 4.12 µM
IC50 (PTP1B): 1.69 ± 0.407 µM

NS(=O)(=O)c1ccc2c(c1)/C(=N/Nc1ccccc1[N+](=O)[O-])C(=O)N2 [RPM134, 3-[(2-Nitrophenyl)hydrazono]-2-oxo-2,3-dihydro-1H-indole-5-sulfonicamide]
% PTP activity (Shp2; concentration not given): 13 ± 5% (12)
IC50 (Shp1 [2]): 93.5 µM

O=C1Nc2ccc(S(=O)(=O)NCc3ccc(Cl)cc3)cc2/C1=N/Nc1ccccc1[N+](=O)[O-] [RPM139, 3-[(2-Nitrophenyl)hydrazono]-2-oxo-2,3-dihydro-1H-indole-5-sulfonic acid 4-chlorobenzylamide]
% PTP activity (Shp2; concentration not given): 12 ± 5% (12)
IC50 (Shp1 [2]): 42.2 µM

CC(C)NS(=O)(=O)c1ccc2c(c1)/C(=N/Nc1ccccc1[N+](=O)[O-])C(=O)N2 [RPM169, 3-[(2-Nitrophenyl)hydrazono]-2-oxo-2,3-dihydro-1H-indole-5-sulfonic acid isopropylamide]
% PTP activity (Shp2; concentration not given): 8 + 3% (12)
IC50 (Shp1 [2]): 110 µM

CC(C)NS(=O)(=O)c1ccc2c(c1)/C(=N/Nc1ccccc1C(=O)O)C(=O)N2 [RPM186, 2-[N′-(5-Isopropylsulfamoyl-2-oxo-1,2-dihydro-indol-3-ylidene)-hydrazino]benzoic acid]
% PTP activity (Shp2; at 20 μM): 0.8 ± 1% (3) at 20 μM
IC50 (Shp1 [2]): 10.8 µM

CC(C)NS(=O)(=O)c1ccc2c(c1)/C(=N/Nc1cccc(C(=O)O)c1)C(=O)N2 [RPM297, 3-[N′-(5-Isopropylsulfamoyl-2-oxo-1,2-dihydro-indol-3-ylidene)hydrazino]benzoic acid]
IC50 (Shp1 [1]): 15.7 µM
% PTP activity (Shp2; at 20 μM): 54 ± 8% (2) At 20 μM

CCOC(=O)c1cccc(N/C=C2\C(=O)Nc3ccc(S(=O)(=O)NC(C)C)cc32)c1 [RPM302, 3-[(5-Isopropylsulfamoyl-2-oxo-1,2-dihydro-indol-3-ylidenemethyl)amino]benzoic acid ethyl ester]
IC50 (Shp2): 33 to 100 µM
% PTP activity (Shp2; at 20 μM): 51 ± 7% (2) at 20 μM

CC(C)NS(=O)(=O)c1ccc2c(c1)/C(=C/Nc1ccccc1[N+](=O)[O-])C(=O)N2 [RPM303, 3-[(2-Nitrophenylamino)methylene]-2-oxo-2,3-dihydro-1H-indole-5-sulfonic acid isopropylamide]
% PTP activity (Shp2; at 20 μM): 46 ± 1% (2) 20 μM

CC(C)NS(=O)(=O)c1ccc2c(c1)/C(=C/Nc1cccc(C(=O)O)c1)C(=O)N2 [RPM304, 3-[(5-Isopropylsulfamoyl-2-oxo-1,2-dihydro-indol-3-ylidenemethyl)amino]benzoic acid]
IC50 (Shp2): 33 to 100 µM
% PTP activity (Shp2; at 20 μM): 82.31% (1) At 20 μM

CC(C)NS(=O)(=O)c1ccc2c(c1)/C(=C/Nc1ccc(C(=O)O)cc1)C(=O)N2 [RPM305, 4-[(5-Isopropylsulfamoyl-2-oxo-1,2-dihydro-indol-3-ylidenemethyl)amino]benzoic acid]
IC50 (Shp2): 33 to 100 µM
% PTP activity (Shp2; at 20 μM): 56.77% (1) at 20 μM

O=C1Cc2cc(S(=O)(=O)NCc3ccc(Cl)cc3)ccc2N1 [RPM307, 2-Oxo-2,3-dihydro-1H-indole-5-sulfonic acid 4-chloro-benzylamide]
% PTP activity (Shp2; at 20 μM): 39 ± 10% (20 at 20 μM

O=C1Nc2ccc(S(=O)(=O)NCc3ccc(Cl)cc3)cc2/C1=C/Nc1ccccc1[N+](=O)[O-] [RPM310]
% PTP activity (Shp2; at 20 μM): 66.20% (1) At 20 μM

O=C1Nc2ccc(C(=O)O)cc2/C1=N/Nc1ccccc1F [RPM319]
IC50 (Shp2): > 100 µM
% PTP activity (Shp2; at 20 μM): 49 ± 4% (2) At 20 μM

CCc1ccccc1N/N=C1\C(=O)Nc2ccc(C(=O)O)cc21 [RPM320, 3-[(2-Ethylphenyl)hydrazono]-2-oxo-2,3-dihydro-1H-indole-5-carboxylic acid]
% PTP activity (Shp2; at 20 μM): 44 ± 5% (2) At 20 μM

CC(C)NS(=O)(=O)c1ccc2c(c1)/C(=N/Nc1cccc(C(N)=O)c1)C(=O)N2 [RPM325, 3-[N′-(5-Isopropylsulfamoyl-2-oxo-1,2-dihydro-indol-3-ylidene)hydrazino]benzamide]
IC50 (Shp2): 33 to 100 µM
% PTP activity (Shp2; at 20 μM): 40 + 4% (2) at 20 μM

CC(C)NS(=O)(=O)c1ccc2c(c1)/C(=N/Nc1cccc(C(=O)NCCN(C)C)c1)C(=O)N2 [RPM326, N-(2-Dimethylamino-ethyl)-3-[N′-(5-isopropylsulfamoyl-2-oxo-1,2-dihydro-indol-3-ylidene)hydrazino]benzamide]
% PTP activity (Shp2; at 20 μM): 57 + 13% (2) at 20 μM

COCCNC(=O)c1cccc(N/N=C2\C(=O)Nc3ccc(S(=O)(=O)NC(C)C)cc32)c1 [RPM327, 3-[N′-(5-Isopropylsulfamoyl-2-oxo-1,2-dihydro-indol-3-ylidene)hydrazino]-N-(2-methoxyethyl)benzamide]
% PTP activity (Shp2; at 20 μM): 44 + 7% (2) at 20 μM

CC(C)NS(=O)(=O)c1ccc2c(c1)/C(=N/Nc1cccc(C(=O)NCc3ccccc3)c1)C(=O)N2 [RPM328, N-Benzyl-3-[N′-(5-isopropylsulfamoyl-2-oxo-1,2-dihydro-indol-3-ylidene)hydrazino]benzamide]
% PTP activity (Shp2; at 20 μM): 47 ± 3% (2) at 20 μM

CNC(=O)c1cccc(N/N=C2\C(=O)Nc3ccc(S(=O)(=O)NC(C)C)cc32)c1 [RPM330, 3-[N′-(5-Isopropylsulfamoyl-2-oxo-1,2-dihydro-indol-3-ylidene)hydrazino]-N-methylbenzamide]
% PTP activity (Shp2; at 20 μM): 47 ± 1% (2) at 20 μM

CCNC(=O)c1cccc(N/N=C2\C(=O)Nc3ccc(S(=O)(=O)NC(C)C)cc32)c1 [RPM331, N-Ethyl-3-[N′-(5-isopropylsulfamoyl-2-oxo-1,2-dihydro-indol-3-ylidene)hydrazino]benzamide]
% PTP activity (Shp2; at 20 μM): 45 + 2% 92) at 20 μM

CC(C)NS(=O)(=O)c1ccc2c(c1)/C(=N/Nc1cccc(C(=O)NCc3cccnc3)c1)C(=O)N2 [RPM332, 3-[N′-(5-Isopropylsulfamoyl-2-oxo-1,2-dihydro-indol-3-ylidene)hydrazino]-N-pyridin-3-ylmethylbenzamide]
IC50 (Shp2): 33 to 100 µM
% PTP activity (Shp2; at 20 μM): 54 ± 7% (2) at 20 μM

CC(C)NS(=O)(=O)c1ccc2c(c1)/C(=N/Nc1cccc(C(=O)NCc3ccco3)c1)C(=O)N2 [RPM333, N-Furan-2-ylmethyl-3-[′-(5-isopropylsulfamoyl-2-oxo-1,2-dihydro-indol-3-ylidene)hydrazino]benzamide]
IC50 (Shp2): 33 to 100 µM
% PTP activity (Shp2; at 20 μM): 48 ± 9% (2) at 20 μM

CC(C)NS(=O)(=O)c1ccc2c(c1)/C(=N/Nc1cccc(C(=O)NCCN3CCOCC3)c1)C(=O)N2 [RPM334, 3-[N′-(5-Isopropylsulfamoyl-2-oxo-1,2-dihydro-indol-3-ylidene)hydrazino]-N-(2-morpholin-4-yl-ethyl)benzamide]
% PTP activity (Shp2; at 20 μM): 39 ± 5% (2) at 20 μM

COC(=O)c1ccccc1N/C=C1\C(=O)Nc2ccc(S(=O)(=O)NC(C)C)cc21 [RPM335, 2-[(5-Isopropylsulfamoyl-2-oxo-1,2-dihydro-indol-3-ylidenemethyl)amino]benzoic acid methyl ester]
IC50 (Shp2): 33 to 100 µM
% PTP activity (Shp2; at 20 μM): 54.19% (1) At 20 μM

CC(C)NS(=O)(=O)c1ccc2c(c1)/C(=C/Nc1ccccc1C(=O)O)C(=O)N2 [RPM336, 2-[(5-Isopropylsulfamoyl-2-oxo-1,2-dihydro-indol-3-ylidenemethyl)amino]benzoic acid]
IC50 (Shp2): 33 to 100 µM
% PTP activity (Shp2; at 20 μM): 48 ± 7% (2) at 20 μM

COC(=O)c1ccc2[nH]cc(C(=O)c3ccccc3)c2c1 [RPM341, 3-Benzoyl-1H-indole-5-carboxylic acid methyl ester]
% PTP activity (Shp2; at 20 μM): 42 ± 10% (2) at 20 μM

COC(=O)c1ccccc1/C=C1\C(=O)Nc2ccc(S(=O)(=O)NC(C)C)cc21 [RPM347, 2-(5-Isopropylsulfamoyl-2-oxo-1,2-dihydro-indol-3-ylidenemethyl)benzoic acid methyl ester]
% PTP activity (Shp2; at 20 μM): 48 ± 9% (2) At 20 μM

O=C(O)c1ccc2[nH]cc(C(=O)c3ccccc3)c2c1 [RPM352, 3-Benzoyl-1H-indole-5-carboxylic acid]
% PTP activity (Shp2; at 20 μM): 57 ± 9% (2) at 20 μM
